Laboratory results from patent US12479843B2, “Spiro ring-containing quinazoline compounds” (WIGEN BIOMEDICINE TECHNOLOGY (SHANGHAI) CO., LTD., priority 2019, dated 2025).

Legend:
[1] = tested on: pERK level in H358 cells; assay: pERK and ERK protein content assay in H358 cells (ELISA); assay type: cell-based; conditions: Homo sapiens, NCI-H358, compound 1 μM, 24 h, pERK/ERK ratio compared with DMSO group, read-out: Inhibition rate (%) of pERK level
Method: H358 cells were seeded in a 24-well plate. After one day of growth, a test compound (at a concentration of 1 μM) was added. After 24 h of action of the compound, the cells were lysed, and the cell lysate was transferred to a 96-well ELISA plate. The levels of pERK and ERK in the lysate were measured using an ELISA kit (abcam 176660). The ratio of pERK to ERK was calculated and compared with that of the DMSO group, and the percentage of inhibition of pERK activity by the compound was calculated.

[2] = tested on: H358 cells; assay: Antiproliferative activity against H358 cells (Cell Titer Glow, ultra-low attachment plate); assay type: cell-based; conditions: Homo sapiens, NCI-H358, 72 h, 96-well ultra-low attachment plate, three days after addition of compound, Cell Titer Glow
Method: 2500 H358 cells were seeded in a 96-well ultra-low attachment plate (corning, 7007). After one day of growth, a serially diluted compound (a maximum concentration of 5 μM, 5-fold dilution, a total of five doses) was added. Three days after the addition of the compound, Cell Titer Glow (Promega, G9681) was added to evaluate pellet growth, and the IC50 value was calculated.

SMILES | IC50 [2] [nM] | inhibition at 1 µM [1] [%]
C=C(F)C(=O)N1CC2(CCN(c3nc(OC4CC5(C4)CN(C)C5)nc4c(OCC(F)(F)F)c(-c5c(C)ccc6[nH]ncc56)c(C5CC5)cc34)CC2)C1 [Compound 124] | < 300 | > 90
C=CC(=O)N1CC2(CCN(c3nc(OC4CCN(CCOC)CC4)nc4c(OCC(F)(F)F)c(-c5c(C)ccc6[nH]ncc56)c(Cl)cc34)CC2)C1 [Compound 12] | < 300 | > 90
C=CC(=O)N1CC2(CCN(c3nc(OC4CCN(CCOC)CC4)nc4c(OCC(F)(F)F)c(-c5cc(O)ccc5F)c(C5CC5)cc34)CC2)C1 [Compound 57] | < 300 | > 90
C=C(F)C(=O)N1CC2(CCN(c3nc(OC4CC5CC4CN5CCOC)nc4c(OCC(F)(F)F)c(-c5c(C)ccc6[nH]ncc56)c(C5CC5)cc34)CC2)C1 (stereo not shown) [Compound 122] | 300 to 1000 | 50 to 90
C=CC(=O)N1CC2(CCN(c3nc(OC4CCN(CCOC)CC4)nc4c(OCC(F)(F)F)c(-c5c(C)ccc6[nH]nnc56)c(C5CC5)cc34)CC2)C1 [Compound 39] | < 300 | > 90
C=CC(=O)N1CC2(CCN(c3nc(OC4CC5CCC(C4)S5(=O)=O)nc4c(OCC(F)(F)F)c(-c5c(C)ccc6[nH]ncc56)c(C5CC5)cc34)CC2)C1 (stereo not shown) [Compound 312] | < 300 | > 90
C=CC(=O)N1CC2(CCN(c3nc(N4CC(N5CCC5)C4)nc4c(OCC(F)(F)F)c(-c5c(C)c(F)cc6[nH]ncc56)c(C5CC5)cc34)CC2)C1 [Compound 219] | < 300 | > 90
C=CC(=O)N1CC2(CCN(c3nc(OC4CCN(CCOC)CC4)nc4c(OCC(F)(F)F)c(-c5c(C)ccc6nc[nH]c(=O)c56)c(C5CC5)cc34)CC2)C1 [Compound 43] | < 300 | > 90
C=C(F)C(=O)N1CC2(CCN(c3nc(N4CC5(CCN(CC6CC6)CC5)C4)nc4c(OCC(F)(F)F)c(-c5c(C)ccc6[nH]ncc56)c(C5CC5)cc34)CC2)C1 [Compound 84] | < 300 | > 90
C=C(C(=O)N1CC2(CCN(c3nc(OC4CCN(CCOC)CC4)nc4c(OCC(F)(F)F)c(-c5c(C)ccc6[nH]ncc56)c(C5CC5)cc34)CC2)C1)n1ccnn1 [Compound 25] | < 300 | > 90
C=C(F)C(=O)N1CC2(CCN(c3nc(N4CC5(CCN(CCOC)C5)C4)nc4c(OCC(F)(F)F)c(-c5c(C)ccc6[nH]ncc56)c(C5CC5)cc34)CC2)C1 [Compound 76] | < 300 | > 90
C=CC(=O)N1CC2(CCN(c3nc(N4CC(N5CC[C@H](C)C5)C4)nc4c(OCC(F)F)c(-c5c(C)ccc6[nH]ncc56)c(C5CC5)cc34)CC2)C1 [Compound 333] | < 300 | > 90
C=C(F)C(=O)N1CC2(CCN(c3nc(OC4CCN(CCOC)CC4)nc4c(OCC(F)(F)F)c(-c5c(F)ccc6[nH]cnc56)c(C5CC5)cc34)CC2)C1 [Compound 38] | 300 to 1000 | > 90
C=CC(=O)N1CC2(CCN(c3nc(OC4CC5CCC4N5CCOC)nc4c(OCC(F)(F)F)c(-c5c(C)ccc6[nH]ncc56)c(C5CC5)cc34)CC2)C1 (stereo not shown) [Compound 309] | < 300 | > 90
C=C(F)C(=O)N1CC2(CCN(c3nc(OC4CN5CCC4CC5)nc4c(OCC(F)(F)F)c(-c5c(C)ccc6[nH]ncc56)c(C5CC5)cc34)CC2)C1 (stereo not shown) [Compound 151] | 300 to 1000 | > 90
C=CC(=O)N1CC2(CCN(c3nc(N4CC[C@H](N5C6CCC5CC6)C4)nc4c(OCC(F)(F)F)c(-c5c(C)ccc6[nH]ncc56)c(C5CC5)cc34)CC2)C1 [Compound 302] | < 300 | > 90
C=CC(=O)N1CC2(CCN(c3nc(OC4CCN(CCOC)CC4)nc4c(OCC(F)(F)F)c(-c5c(N)c(Cl)cc(Cl)c5F)c(C5CC5)cc34)CC2)C1 [Compound 49] | < 300 | > 90

Now from value to compound, other results behind:

IC50 [2] [nM] | SMILES | inhibition at 1 µM [1] [%]
< 300 | C=CC(=O)N1CC2(CCN(c3nc(N4CC[C@@H](N5CCCC5)C4)nc4c(OCC(F)(F)F)c(-c5c(C)ccc6[nH]ncc56)c(C5CC5)cc34)CC2)C1 [Compound 184] | > 90
< 300 | C=C(F)C(=O)N1CC2(CCN(c3nc(OC4CN(C)C4)nc4c(OCC(F)(F)F)c(-c5c(C)ccc6[nH]ncc56)c(C5CC5)cc34)CC2)C1 [Compound 110] | > 90
< 300 | C=CC(=O)N1CC2(CCN(c3nc(N4CC(N5CCC(OC)CC5)C4)nc4c(OCC(F)(F)F)c(-c5c(C)ccc6[nH]ncc56)c(C5CC5)cc34)CC2)C1 [Compound 179] | > 90
< 300 | C=CC(=O)N1CC2(CCN(c3nc(N4CC5(C4)[C@H](F)CCN5C)nc4c(OCC(F)(F)F)c(-c5c(C)ccc6[nH]ncc56)c(C5CC5)cc34)CC2)C1 [Compound 274] | > 90
< 300 | C=CC(=O)N1CC2(CCN(c3nc(N4CC(N5CC(F)C5)C4)nc4c(OCC(F)(F)F)c(-c5c(C)ccc6[nH]ncc56)c(C5CC5)cc34)CC2)C1 [Compound 168] | > 90
< 300 | C=C(F)C(=O)N1CC2(CCN(c3nc(OC4CN(CCOC)C4)nc4c(OCC(F)(F)F)c(-c5c(C)ccc6[nH]ncc56)c(C5CC5)cc34)CC2)C1 [Compound 114] | > 90
< 300 | C=CC(=O)N1CC2(CCN(c3nc(N4CCC5(CC4)CN(CCOC)C5)nc4c(OCC(F)(F)F)c(-c5c(C)ccc6[nH]ncc56)c(C5CC5)cc34)CC2)C1 [Compound 103] | > 90
< 300 | C=CC(=O)N1CC2(CCN(c3nc(N4CC(N5C[C@@H](F)[C@@H](F)C5)C4)nc4c(OCC(F)(F)F)c(-c5c(C)ccc6[nH]ncc56)c(C5CC5)cc34)CC2)C1 [Compound 267] | > 90
< 300 | C=CC(=O)N1CC2(CCN(c3nc(OC4CN(C5COC5)C4)nc4c(OCC(F)(F)F)c(-c5c(C)ccc6[nH]ncc56)c(C5CC5)cc34)CC2)C1 [Compound 111] | > 90
300 to 1000 | C=CC(=O)N1CC2(CCN(c3nc(N4CCC(N5CCOCC5)CC4)nc4c(OCC(F)(F)F)c(-c5c(C)ccc6[nH]ncc56)c(C5CC5)cc34)CC2)C1 [Compound 148] | 50 to 90
< 300 | C=CC(=O)N1CC2(CCN(c3nc(N4CC5(CC(N6CC(C)C6)C5)C4)nc4c(OCC(F)(F)F)c(-c5c(C)ccc6[nH]ncc56)c(C5CC5)cc34)CC2)C1 [Compound 288] | > 90
< 300 | C=CC(=O)N1CC2(CCN(c3nc(N4CC(N5CCC[C@@H]5CO)C4)nc4c(OCC(F)(F)F)c(-c5c(C)ccc6[nH]ncc56)c(C5CC5)cc34)CC2)C1 [Compound 251] | > 90
300 to 1000 | C=CC(=O)N1CC2(CCN(c3nc(N4CCC5(CN(C)C5)C4)nc4c(OCC(F)(F)F)c(-c5c(C)ccc6[nH]ncc56)c(C5CC5)cc34)CC2)C1 [Compound 97] | 50 to 90
< 300 | C=CC(=O)N1CC2(CCN(c3nc(N4CC5(C4)OCC[C@H]5N(C)C)nc4c(OCC(F)(F)F)c(-c5c(C)ccc6[nH]ncc56)c(C5CC5)cc34)CC2)C1 [Compound 281] | > 90
300 to 1000 | C=CC(=O)N1CC2(CCN(c3nc(N(C)CCN4CC(C#N)C4)nc4c(OCC(F)(F)F)c(-c5c(C)ccc6[nH]ncc56)c(C5CC5)cc34)CC2)C1 [Compound 231] | 50 to 90
